According to patent US12227495B2, “Herbicidal compounds” (SYNGENTA CROP PROTECTION AG, priority 2018, dated 2025):

Experiments:
Format in all cases: in vivo
Lolium perenne (LOLPE) [1] = assay: Pre-emergence herbicide test, glasshouse, percentage damage; conditions: rate 1000 g/ha, evaluated after 13 days
Summary of the method: (§1)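 Pot-grown plants were sprayed at 500 g/ha unless otherwise stated, in acetone/water (50:50) with 0.5% Tween 20. Pre-emergence spraying was 1 day after sowing and post-emergence after 8 days, in a glasshouse at 24/16° C, 14 h light, 65% humidity. Percentage damage was scored 13 days later on a 1–5 scale (5=81-100%).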

Solanum nigrum (SOLNI) [2] = assay: as above; conditions: rate 1000 g/ha, evaluated after 13 days
Summary of the method: as §1

[3] = test system: Echinochloa crus-galli (ECHCG); assay: as above; conditions: rate 1000 g/ha, evaluated after 13 days
Summary of the method: as §1

Setaria faberi (SETFA) [4] = assay: as above; conditions: rate 1000 g/ha, evaluated after 13 days
Summary of the method: as §1

[5] = test system: Amaranthus retoflexus (AMARE); assay: as above; conditions: rate 1000 g/ha, evaluated after 13 days
Summary of the method: as §1

[6] = test system: Ipomoea hederacea (IPOHE); assay: as above; conditions: rate 1000 g/ha, evaluated after 13 days
Summary of the method: as §1

Lolium perenne (LOLPE) [7] = assay: Post-emergence herbicide test, glasshouse, percentage damage; conditions: 1000 g/ha, evaluated after 13 days
Summary of the method: as §1

Solanum nigrum (SOLNI) [8] = assay: as above; conditions: 1000 g/ha, evaluated after 13 days
Summary of the method: as §1

[9] = test system: Echinochloa crus-galli (ECHCG); assay: as above; conditions: 1000 g/ha, evaluated after 13 days
Summary of the method: as §1

Setaria faberi (SETFA) [10] = assay: as above; conditions: 1000 g/ha, evaluated after 13 days
Summary of the method: as §1

[11] = test system: Amaranthus retoflexus (AMARE); assay: as above; conditions: 1000 g/ha, evaluated after 13 days
Summary of the method: as §1

[12] = test system: Ipomoea hederacea (IPOHE); assay: as above; conditions: 1000 g/ha, evaluated after 13 days
Summary of the method: as §1

Compound: N#Cc1cccc(Oc2ncc(Cl)cc2F)c1-c1cc(C(F)F)no1 [Compound A162]
- Pre-emergence Test LOLPE percentage damage (five point scale) (Lolium perenne (LOLPE) [1]): 5 (5=81-100%)
- Pre-emergence Test SOLNI percentage damage (five point scale) (Solanum nigrum (SOLNI) [2]): 4 (4=61-80%)
- Pre-emergence Test ECHCG percentage damage (five point scale) [3]: 5 (5=81-100%)
- Pre-emergence Test SETFA percentage damage (five point scale) (Setaria faberi (SETFA) [4]): 5 (5=81-100%)
- Pre-emergence Test AMARE percentage damage (five point scale) [5]: 5 (5=81-100%)
- Pre-emergence Test IPOHE percentage damage (five point scale) [6]: 5 (5=81-100%)
- percentage damage caused to the plant, LOLPE (Lolium perenne (LOLPE) [7]): 5 (5=81-100%)
- percentage damage caused to the plant, SOLNI (Solanum nigrum (SOLNI) [8]): 5 (5=81-100%)
- percentage damage caused to the plant, ECHCG [9]: 4 (4=61-80%)
- percentage damage caused to the plant, SETFA (Setaria faberi (SETFA) [10]): 5 (5=81-100%)
- percentage damage caused to the plant, AMARE [11]: 5 (5=81-100%)
- percentage damage caused to the plant, IPOHE [12]: 5 (5=81-100%)
